Earlier results, collected in patent publication US20230158084A1, “PROBIOTICS, METABOLITES, AND USES THEREOF” (California Institute of Technology, priority 2018, published 2023).

Conditions: adult mice; cited from earlier work

SMILES: C1=NCCCC1 [1-piperideine]
- conversion to 5AV in the brain: rapidly converted to 5AV
- entry into the brain: can enter the brain
